Patent US9822130B2, “Triazolo-pyrazinyl derivatives useful as soluble guanylate cyclase activators” (Merck Sharp & Dohme Corp., priority 2014, dated 2017)

Target: T1, sGC α1/β1 heterodimer stably expressed in CHO-K1 cell line (CHO-K1/sGC) (Homo sapiens, UniProt Q02108+Q02153)
T1 construct: expressed in transfected cells
T1 sequence (Q02108 1-690): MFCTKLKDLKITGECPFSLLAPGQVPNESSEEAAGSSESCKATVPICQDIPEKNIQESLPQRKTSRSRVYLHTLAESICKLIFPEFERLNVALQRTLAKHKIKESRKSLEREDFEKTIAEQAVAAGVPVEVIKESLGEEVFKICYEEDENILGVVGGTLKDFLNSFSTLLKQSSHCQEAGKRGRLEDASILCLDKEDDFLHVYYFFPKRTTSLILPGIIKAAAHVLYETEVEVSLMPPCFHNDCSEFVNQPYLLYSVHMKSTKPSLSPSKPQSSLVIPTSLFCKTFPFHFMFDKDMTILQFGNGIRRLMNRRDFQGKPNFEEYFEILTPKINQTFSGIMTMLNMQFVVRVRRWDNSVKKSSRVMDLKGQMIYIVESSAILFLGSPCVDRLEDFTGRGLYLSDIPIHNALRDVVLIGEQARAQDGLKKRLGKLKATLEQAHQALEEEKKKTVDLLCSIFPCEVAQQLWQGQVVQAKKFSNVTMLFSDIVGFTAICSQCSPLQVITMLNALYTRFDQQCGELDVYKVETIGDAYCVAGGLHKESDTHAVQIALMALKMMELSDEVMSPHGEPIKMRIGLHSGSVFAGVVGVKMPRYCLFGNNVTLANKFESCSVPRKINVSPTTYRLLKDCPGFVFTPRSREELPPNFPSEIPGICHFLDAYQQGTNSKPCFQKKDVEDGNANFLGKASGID
T1 sequence (Q02153 1-619): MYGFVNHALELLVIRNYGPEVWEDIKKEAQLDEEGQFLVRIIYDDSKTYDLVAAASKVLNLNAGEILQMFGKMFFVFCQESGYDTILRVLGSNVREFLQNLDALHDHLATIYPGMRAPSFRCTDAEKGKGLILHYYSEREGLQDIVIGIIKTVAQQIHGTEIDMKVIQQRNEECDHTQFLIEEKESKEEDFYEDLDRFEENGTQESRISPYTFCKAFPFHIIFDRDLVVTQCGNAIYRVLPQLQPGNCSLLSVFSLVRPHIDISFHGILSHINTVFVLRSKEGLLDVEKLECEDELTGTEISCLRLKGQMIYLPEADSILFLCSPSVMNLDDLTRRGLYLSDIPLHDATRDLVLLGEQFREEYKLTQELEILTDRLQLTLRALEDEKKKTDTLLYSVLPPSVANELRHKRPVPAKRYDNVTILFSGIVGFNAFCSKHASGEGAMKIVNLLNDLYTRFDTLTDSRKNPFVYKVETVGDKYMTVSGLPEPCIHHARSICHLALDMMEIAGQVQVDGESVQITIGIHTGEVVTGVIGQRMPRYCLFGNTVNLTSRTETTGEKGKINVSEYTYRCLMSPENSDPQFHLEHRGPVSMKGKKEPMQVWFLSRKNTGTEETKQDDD
Assay: Cell-based sGC Functional Assay (CASA Assay), cGMP generation
Conditions: CHO-K1/sGC cells, 1 hr at 37° C., cGMP by HTRF, 4P fit; presence or absence of 1 μM DETA-NO not given; read-out: IP (nM) (inflection point)
Procedure, shortened: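 Readout is HTRF cGMP in lysates, normalised to the maximal response of reference sGC activator Compound A (100%), with a 4P fit giving IP and fold induction. Cells were CHO-K1/sGC (human α1/β1) in EBSS buffer with IBMX, incubated 1 hr at 37° C with compound. Run with and without 1 μM DETA-NO; final DMSO 2.5%.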

Compound | EC50 [nM]
CCCc1nc(-c2nc(N)c3c(n2)NC(=O)C3(C)c2ccc(F)cn2)cn2nc(C)nc12 (stereo not shown) [Example 92B, 4-amino-5-(5-fluoropyridin-2-yl)-5-methyl-2-(2-methyl-8-propyl-[1,2,4]triazolo[1,5-a]pyrazin-6-yl)-5H-pyrrolo[2,3-d]pyrimidin-6(7H)-one] | 4830
CC1(c2ccc(Cl)c(F)c2)C(=O)Nc2nc(-c3cn4ncnc4c(CCCC(F)(F)F)n3)nc(N)c21 (stereo not shown) [Example 28B, 4-amino-5-(4-chloro-3-fluorophenyl)-5-methyl-2-(8-(4,4,4-trifluorobutyl)-[1,2,4]triazolo[1,5-a]pyrazin-6-yl)-5H-pyrrolo[2,3-d]pyrimidin-6(7H)-one] | 20
CCCc1nc(-c2nc(N)c3c(n2)NC(=O)C3(c2ccc(F)c(F)c2)C2CC2)cn2ncnc12 (stereo not shown) [Example 58A, 4-amino-5-cyclopropyl-5-(3,4-difluorophenyl)-2-(8-propyl-[1,2,4]triazolo[1,5-a]pyrazin-6-yl)-5H-pyrrolo[2,3-d]pyrimidin-6(7H)-one] | 242
CC1(c2ccc(Cl)cc2)C(=O)Nc2nc(-c3cn4ncnc4c(CCC(F)(F)C(F)(F)F)n3)nc(N)c21 (stereo not shown) [Example 10A, 4-amino-5-(4-chlorophenyl)-5-methyl-2-(8-(3,3,4,4,4-pentafluorobutyl)-[1,2,4]triazolo[1,5-a]pyrazin-6-yl)-5H-pyrrolo[2,3-d]pyrimidin-6(7H)-one] | 15.8
CC1(c2nnc(C(F)F)o2)C(=O)Nc2nc(-c3cn4ncnc4c(CCCC(F)(F)F)n3)nc(N)c21 (stereo not shown) [Example 100A, 4-amino-5-(5-(difluoromethyl)-1,3,4-oxadiazol-2-yl)-5-methyl-2-(8-(4,4,4-trifluorobutyl)-[1,2,4]triazolo[1,5-a]pyrazin-6-yl)-5H-pyrrolo[2,3-d]pyrimidin-6(7H)-one] | 127
CC1(c2ccccn2)C(=O)Nc2nc(-c3cn4ncnc4c(CCCC(F)(F)F)n3)nc(N)c21 (stereo not shown) [Example 36B, 4-amino-5-methyl-5-(pyridin-2-yl)-2-(8-(4,4,4-trifluorobutyl)-[1,2,4]triazolo[1,5-a]pyrazin-6-yl)-5H-pyrrolo[2,3-d]pyrimidin-6(7H)-one] | 56.5
CC1(c2ccc(F)cn2)C(=O)Nc2nc(-c3cn4ncnc4c(CCCC(F)(F)F)n3)ncc21 (stereo not shown) [Example 176B] | 526
Cc1nc2c(Cc3ccc(F)cc3)nc(-c3nc(N)c4c(n3)NC(=O)[C@@]4(C)c3ccc(F)cc3)cn2n1 [Example 87B, (S)-4-amino-2-(8-(4-fluorobenzyl)-2-methyl-[1,2,4]triazolo[1,5-a]pyrazin-6-yl)-5-(4-fluorophcnyl)-5-methyl-5H-pyrrolo[2,3-d]pyrimidin-6(7H)-one] | 80.2
CC1(c2ccc(Cl)c(F)c2)C(=O)Nc2nc(-c3cn4ncnc4c(CCCC(F)(F)F)n3)nc(O)c21 (stereo not shown) [Example 138B, 5-(4-chloro-3-fluorophenyl)-4-hydroxy-5-methyl-2-(8-(4,4,4-trifluorobutyl)-[1,2,4]triazolo[1,5-a]pyrazin-6-yl)-5H-pyrrolo[2,3-d]pyrimidin-6(7H)-one] | 344
CC1(c2ccc(Cl)c(F)c2)C(=O)Nc2nc(-c3cn4ncnc4c(CCC(F)(F)C(F)(F)F)n3)nc(O)c21 (stereo not shown) [Example 121B, 5-(4-chloro-3-fluorophenyl)-4-hydroxy-5-methyl-2-(8-(3,3,4,4,4-pentafluorobutyl)-[1,2,4]triazolo[1,5-a]pyrazin-6-yl)-5H-pyrrolo[2,3-d]pyrimidin-6(7H)-one] | 130
CC1(c2ccc(C(F)(F)F)cc2)C(=O)Nc2nc(-c3cn4ncnc4c(CCCC(F)(F)F)n3)nc(O)c21 (stereo not shown) [Example 137B, 4-hydroxy-5-methyl-2-(8-(4,4,4-trifluorobutyl)-[1,2,4]triazolo[1,5-a]pyrazin-6-yl)-5-(4-(trifluoromethyl)phenyl)-5H-pyrrolo[2,3-d]pyrimidin-6(7H)-one] | 597
CC(F)(F)c1ccc(C2(C)C(=O)Nc3nc(-c4cn5ncnc5c(CCC(F)(F)C(F)(F)F)n4)nc(N)c32)cn1 (racemic) [Example 16B, 4-amino-5-(6-(1,1-difluoroethyl)pyridin-3-yl)-5-methyl-2-(8-(3,3,4,4,4-pentafluorobutyl)-[1,2,4]triazolo[1,5-a]pyrazin-6-yl)-5H-pyrrolo[2,3-d]pyrimidin-6(7H)-one] | 13.1
CCCCc1nc(-c2nc(N)c3c(n2)NC(=O)C3(c2ccc(C)cn2)C2CC2)cn2ncnc12 (racemic) [Example 72B, 4-amino-2-(8-butyl-[1,2,4]triazolo[1,5-a]pyrazin-6-yl)-5-cyclopropyl-5-(5-methylpyridin-2-yl)-5H-pyrrolo[2,3-d]pyrimidin-6(7H)-one] | 28.5
CC(C)Cc1nc(-c2nc(O)c3c(n2)NC(=O)[C@@]3(C)c2ccc(F)cc2)cn2ncnc12 [Example 163A, (S)-5-(4-fluorophenyl)-4-hydroxy-2-(8-isobutyl-[1,2,4]triazolo[1,5-a]pyrazin-6-yl)-5-methyl-5,7-dihydro-6H-pyrrolo[2,3-d]pyrimidin-6-one] | 1630
CC1(c2ccc(F)c(F)c2)C(=O)Nc2nc(-c3cn4ncnc4c(CCC(F)(F)C(F)(F)F)n3)nc(O)c21 (stereo not shown) [Example 169B, 5-(3,4-Difluorophenyl)-4-hydroxy-5-methyl-2-(8-(3,3,4,4,4-pentafluorobutyl)-[1,2,4]triazolo[1,5-a]pyrazin-6-yl)-5,7-dihydro-6H-pyrrolo[2,3-d]pyrimidin-6-one] | 111
CC1(c2ccc(Cl)cc2)C(=O)Nc2nc(-c3cn4ncnc4c(CCCC(F)(F)F)n3)nc(N)c21 (stereo not shown) [Example 29A, 4-amino-5-(4-chlorophenyl)-5-methyl-2-(8-(4,4,4-trifluorobutyl)-[1,2,4]triazolo[1,5-a]pyrazin-6-yl)-5H-pyrrolo[2,3-d]pyrimidin-6(7H)-one] | 11.4
C[C@@]1(c2ccc(F)cc2)C(=O)Nc2nc(-c3cn4ncnc4c(CCC(F)(F)F)n3)ncc21 [Example 174A, (S)-5-(4-fluorophenyl)-5-methyl-2-(8-(3,3,3-trifluoropropyl)-[1,2,4]triazolo[1,5-a]pyrazin-6-yl)-5,7-dihydro-6H-pyrrolo[2,3-d]pyrimidin-6-one] | 1350
CC1(c2ccc(Cl)cn2)C(=O)Nc2nc(-c3cn4ncnc4c(CCCC(F)(F)F)n3)nc(N)c21 (stereo not shown) [Example 26A, 4-amino-5-(5-chloropyridin-2-yl)-5-methyl-2-(8-(4,4,4-trifluorobutyl)-[1,2,4]triazolo[1,5-a]pyrazin-6-yl)-5H-pyrrolo[2,3-d]pyriniidin-6(7H)-one] | 27.8
CC1(c2ccc(C(F)(F)F)cn2)C(=O)Nc2nc(-c3cn4ncnc4c(CCC(F)(F)F)n3)nc(N)c21 (stereo not shown) [Example 78B, 4-amino-5-methyl-5-(5-(tritluoromethyl)pyridin-2-yl)-2-(8-(3,3,3-trifluoropropyl)-[1,2,4]triazolo[1,5-d]pyrazin-6-yl)-5H-pyrrolo[2,3-d]pyrimidin-6(7H)-one] | 550
CC1(c2ccc(C#N)cn2)C(=O)Nc2nc(-c3cn4ncnc4c(CCC(F)(F)C(F)(F)F)n3)nc(O)c21 (stereo not shown) [Example 131A, 6-(4-hydroxy-5-methyl-6-oxo-2-(8-(3,3,4,4,4-pentafluorobutyl)-[1,2,4]triazolo[1,5-a]pyrazin-6-yl)-6,7-dihydro-5H-pyrrolo[2,3-d]pyrimidin-5-yl)nicotinonitrile] | 1470
CC1(c2ccccn2)C(=O)Nc2nc(-c3cn4ncnc4c(CCC(F)(F)C(F)(F)F)n3)nc(N)c21 (stereo not shown) [Example 11B, 4-amino-5-methyl-2-(8-(3,3,4,4,4-pentafluorobutyl)-[1,2,4]triazolo[1,5-a]pyrazin-6-yl)-5-(pyridin-2-yl)-5H-pyrrolo[2,3-d]pyrimidin-6(7H)-one] | 25.2
CCCCc1nc(-c2nc(N)c3c(n2)NC(=O)C3(c2nnc(C(F)(F)F)o2)C2CC2)cn2ncnc12 (stereo not shown) [Example 105A, 4-amino-2-(8-butyl-[1,2,4]triazolo[1,5-a]pyrazin-6-yl)-5-cyclopropyl-5-(5-(trifluoromethyl)-1,3,4-oxadiazol-2-yl)-5H-pyrrolo[2,3-d]pyrimidin-6(7H)-one] | 26.7
